Source: patent publication US20210251991A1, “SUBSTITUTED 2,2'-BIPYRIMIDINYL COMPOUNDS, ANALOGUES THEREOF, AND METHODS USING SAME” (priority 2018, published 2021)

Test system: HBsAg in HepG2.2.15 cells
Assay: HBsAg assay: inhibition of HBsAg in HepG2.2.15 cells (chemiluminescence immunoassay of supernatant)
Assay type: cell-based, hepatitis B virus
Conditions: Hepatitis B virus, HepG2.2.15, 144 h, read-out: sAg EC50, HepG2.2.15 cells, supernatant collected at day 6 after exposure, HBsAg CLIA
Procedure: Inhibition of HBsAg was determined in HepG2.2.15 cells. Cells were maintained in culture medium containing 10% fetal calf serum, […], Glutamine, penicillin/streptomycin. Cells were seeded in 96-well collagen-coated plate at a density of 30,000 cells/well. Serially diluted compounds were added to cells next day at the final DMSO concentration of 0.5%. Cells were incubated with compounds for 2-3 days, after which medium was removed. Fresh medium containing compounds was added to cells for additional 3-4 days. At day 6 after exposure of compounds, supernatant was collected, the HBsAg immunoassay (microplate-based chemiluminescence immunoassay kits, CLIA, Autobio Diagnosics Co., Zhengzhou, China, Catalog #CL0310-2) was used to determine the level of HBsAg according to manufactory instruction. Dose-response curves were generated and the EC50 value (effective concentrations that achieved 50% inhibitory effect) were determined using XLfit software. In addition, cells were seeded at a density of 5,000 cells/well for determination of cell viability in the presence and absence of compounds by using CellTiter-Glo reagent (Promega).

Point of comparison: `CCC1c2cc(F)c(OC)cc2CCN1c1cnc(C(N)=O)nc1` (stereo not shown) [Example 118, 5-(1-Ethyl-7-fluoro-6-methoxy-3,4-dihydro-1H-isoquinolin-2-yl)pyrimidine-2-carboxamide], EC50 520 nM. Against it:
- CCC1c2ccccc2CCN1c1ccnc(-c2ncccn2)n1 (stereo not shown) [Example 13, 2-([2,2′-Bipyrimidin]-4-yl)-1-ethyl-1,2,3,4-tetrahydroisoquinoline] — within 1.5-fold, 500 nM
- CCC1c2cc(F)c(F)cc2CN1c1ccnc(C(N)=O)n1 (stereo not shown) [Example 121, 4-(1-Ethyl-5,6-difluoroisoindolin-2-yl)pyrimidine-2-carboxamide] — 35-fold higher, 18000 nM
- CCC1c2cc(OC)c(OC)cc2CN1c1nc(-c2ncccn2)ncc1C(C)C (stereo not shown) [Example 62, 1-Ethyl-2-(5-isopropyl-[2,2′-bipyrimidin]-4-yl)-5,6-dimethoxyisoindoline] — 1.9-fold higher, 1000 nM
- CCC1c2cc(F)c(OC)cc2CN1c1cnc(C(=O)Nc2ccccn2)nc1 (stereo not shown) [Example 106, 5-(1-Ethyl-6-fluoro-5-methoxyisoindolin-2-yl)-N-(pyridin-2-yl)pyrimidine-2-carboxamide] — 3.8-fold higher, 2000 nM
- CCC1c2c(OC)ccc(F)c2CCN1c1ccnc(-c2ncccn2)n1 (stereo not shown) [Example 42, 1-Ethyl-5-fluoro-8-methoxy-2-(2-pyrimidin-2-ylpyrimidin-4-yl)-3,4-dihydro-1H-isoquinoline] — 8.4-fold lower, 62 nM
- CCC1c2cc(OC)c(OC)cc2CN1c1nc(-c2ncccn2)nc2c1CCC2 (stereo not shown) [Example 94, 4-(1-Ethyl-5,6-dimethoxy-isoindolin-2-yl)-2-pyrimidin-2-yl-6,7-dihydro-5H-cyclopenta[d]pyrimidine] — within 1.5-fold, 350 nM
- c1cnc(-c2nccc(N3C4CCC3c3ccccc34)n2)nc1 [Example 82, 9-([2,2′-Bipyrimidin]-4-yl)-1,2,3,4-tetrahydro-1,4-epiminonaphthalene] — 17-fold higher, 9000 nM
- CCC1c2cc(F)c(F)cc2CN1c1nc(-c2ncccn2)ncc1F (stereo not shown) [Example 51, 1-Ethyl-5,6-difluoro-2-(5-fluoro-[2,2′-bipyrimidin]-4-yl)isoindoline] — 19-fold lower, 27 nM
- CCC1c2cc(F)c(OC)cc2CCN1c1ccnc(C(N)=O)n1 (stereo not shown) [Example 120, 4-(1-Ethyl-7-fluoro-6-methoxy-3,4-dihydro-1H-isoquinolin-2-yl)pyrimidine-2-carboxamide] — 27-fold higher, 14000 nM
- c1cnc(-c2nccc(N3CCc4ccccc4C3)n2)nc1 [Example 9, 2-([2,2′-Bipyrimidin]-4-yl)-1,2,3,4-tetrahydroisoquinoline] — 16-fold higher, 8500 nM
- c1cnc(-c2ncc(N3C4CCC3c3ccccc34)cn2)nc1 [Example 22, 9-([2,2′-Bipyrimidin]-5-yl)-1,2,3,4-tetrahydro-1,4-epiminonaphthalene] — 40-fold higher, 21000 nM
- CC1c2ccc(F)c(F)c2CCN1c1cnc2c(ccc3cccnc32)c1 (stereo not shown) [Example 123, 3-(5,6-Difluoro-1-methyl-3,4-dihydroisoquinolin-2(1H)-yl)-1,10-phenanthroline] — within 1.5-fold, 440 nM
- CC1CN(c2cnc(-c3ncccn3)nc2)Cc2ccccc21 (stereo not shown) [Example 5, 2-([2,2′-Bipyrimidin]-5-yl)-4-methyl-1,2,3,4-tetrahydroisoquinoline] — 65-fold higher, 34000 nM
- Fc1ccc2c(c1F)CCN(c1cnc(-c3ncccn3)nc1)C2 [Example 3, 2-([2,2′-Bipyrimidin]-5-yl)-5,6-difluoro-1,2,3,4-tetrahydroisoquinoline] — 6.5-fold higher, 3400 nM
- COC(=O)CC1c2cc(OC)c(OC)cc2CCN1c1cnc(-c2ncccn2)nc1 (stereo not shown) [Example 26, Methyl 2-(2-([2,2′-bipyrimidin]-5-yl)-6,7-dimethoxy-1,2,3,4-tetrahydroisoquinolin-1-yl) acetate] — 2.3-fold higher, 1200 nM
- CCC1c2cc(F)c(OC)cc2CN1c1nc(-c2ncccn2)ncc1F (stereo not shown) [Example 70, 1-Ethyl-6-fluoro-2-(5-fluoro-[2,2′-bipyrimidin]-4-yl)-5-methoxyisoindoline] — 100-fold lower, 5 nM
- CCC1c2cc(OC)c(OC)cc2CN1c1nc(-c2ncccn2)ncc1NC (stereo not shown) [Example 59, 4-(1-Ethyl-5,6-dimethoxyisoindolin-2-yl)-N-methyl-[2,2′-bipyrimidin]-5-amine] — 4-fold lower, 130 nM
- CCC1c2cc(F)c(OC)cc2CN1c1ccnc(C(=O)O)n1 (stereo not shown) [Example 96, 4-(1-Ethyl-6-fluoro-5-methoxyisoindolin-2-yl)pyrimidine-2-carboxylic Acid] — 2.3-fold higher, 1200 nM
- Fc1cc(F)c2c(c1)CN(c1cnc(-c3ncccn3)nc1)CC2 [Example 1, 2-([2,2′-Bipyrimidin]-5-yl)-5,7-difluoro-1,2,3,4-tetrahydroisoquinoline] — 3.7-fold higher, 1900 nM
- c1cnc(-c2ncc(N3CC4CCC3c3ccccc34)cn2)nc1 (stereo not shown) [Example 20, 10-([2,2′-Bipyrimidin]-5-yl)-1,2,3,4-tetrahydro-1,4-(epiminomethano) naphthalene] — 62-fold higher, 32000 nM
- CCC1c2cc(F)c(OC)cc2CCN1c1cnc(-c2ncccn2)nc1 (stereo not shown) [Example 132, 2-(2,2′-Bipyrimidin-5-yl)-1-ethyl-7-fluoro-6-methoxy-1,2,3,4-tetrahydroisoquinoline] — 74-fold lower, 7 nM
- Fc1cc(F)c2c(c1)CN(c1ccnc(-c3ncccn3)n1)CC2 [Example 2, 2-([2,2′-Bipyrimidin]-4-yl)-5,7-difluoro-1,2,3,4-tetrahydroisoquinoline] — 3.1-fold higher, 1600 nM
- Cc1cnc(-c2ncccn2)nc1N1CC2CCC1c1ccccc12 (stereo not shown) [Example 81, 10-(5-Methyl-[2,2′-bipyrimidin]-4-yl)-1,2,3,4-tetrahydro-1,4-(epiminomethano)naphthalene] — 1.9-fold lower, 280 nM
- CCC1c2ccc(F)c(F)c2CCN1c1cnc(-c2ncccn2)nc1 (stereo not shown) [Example 32, 1-Ethyl-5,6-difluoro-2-(2-pyrimidin-2-ylpyrimidin-5-yl)-3,4-dihydro-1H-isoquinoline] — 3.8-fold higher, 2000 nM
- COc1cc2c(cc1OC)C1CCC2N1c1nc(-c2ncccn2)ncc1F [Example 87, 9-(5-Fluoro-[2,2′-bipyrimidin]-4-yl)-6,7-dimethoxy-1,2,3,4-tetrahydro-1,4-epiminonaphthalene] — 1.9-fold higher, 1000 nM
- CCC1Cc2ccccc2CN1c1ccnc(-c2ncccn2)n1 (stereo not shown) [Example 8, 2-([2,2′-Bipyrimidin]-4-yl)-3-ethyl-1,2,3,4-tetrahydroisoquinoline] — 4.4-fold higher, 2300 nM
- CCC1c2cc(F)c(F)cc2CN1c1nc(-c2ncccn2)ncc1C1CC1 (stereo not shown) [Example 54, 2-(5-Cyclopropyl-[2,2′-bipyrimidin]-4-yl)-1-ethyl-5,6-difluoroisoindoline] — 2.4-fold lower, 220 nM
- CCC1c2cc(OC)c(OC)cc2CN1c1nc(-c2ncccn2)nc2ccoc12 (stereo not shown) [Example 91, 4-(1-Ethyl-5,6-dimethoxyisoindolin-2-yl)-2-(pyrimidin-2-yl)furo[3,2-d]pyrimidine] — 3.5-fold lower, 150 nM
- Fc1cnc(-c2ncccn2)nc1N1C2CCC1c1ccccc12 [Example 86, 9-(5-Fluoro-[2,2′-bipyrimidin]-4-yl)-1,2,3,4-tetrahydro-1,4-epiminonaphthalene] — 4.6-fold higher, 2400 nM

Same assay, conditions: read-out: sAg EC50; HepG2.2.15 cells, supernatant collected at day 6 after exposure, HBsAg CLIA

Point of comparison: `CCC1c2cc(F)c(OC)cc2CN1c1nc(-c2ncccn2)ncc1-c1ccccc1` (single isomer, unassigned) [Example 66, 1-Ethyl-6-fluoro-5-methoxy-2-(5-phenyl-[2,2′-bipyrimidin]-4-yl)isoindoline], EC50 1000 nM. Against it:
- CCC1c2c(OC)ccc(F)c2CCN1c1ccnc(-c2ncccn2)n1 (single isomer, unassigned) [Example 44, 1-Ethyl-5-fluoro-8-methoxy-2-(2-pyrimidin-2-ylpyrimidin-4-yl)-3,4-dihydro-1H-isoquinoline] — 7-fold higher, 7000 nM
- CCC1c2cc(F)c(OC)cc2CN1c1nc(-c2ncccn2)ncc1OC (single isomer, unassigned) [Example 73, 1-Ethyl-6-fluoro-5-methoxy-2-(5-methoxy-[2,2′-bipyrimidin]-4-yl)isoindoline] — the same, 1000 nM
- CCC1c2cc(F)c(OC)cc2CN1c1nc(-c2ncccn2)ncc1F (single isomer, unassigned) [Example 72, 1-Ethyl-6-fluoro-2-(5-fluoro-[2,2′-bipyrimidin]-4-yl)-5-methoxyisoindoline] — 15-fold lower, 67 nM
- CCC1c2cc(F)c(F)cc2CN1c1ccnc(-c2ncccn2)n1 (single isomer, unassigned) [Example 49, 2-([2,2′-Bipyrimidin]-4-yl)-1-ethyl-5,6-difluoroisoindoline] — 23-fold lower, 44 nM
- CCC1c2cc(OC)c(F)c(F)c2CCN1c1cnc(-c2ncccn2)nc1 (single isomer, unassigned) [Example 30, 1-Ethyl-5,6-difluoro-7-methoxy-2-(2-pyrimidin-2-ylpyrimidin-5-yl)-3,4-dihydro-1H-isoquinoline] — 7.7-fold lower, 130 nM
- CCC1c2cc(F)c(OC)cc2CCN1c1cnc(-c2ncccn2)nc1 (single isomer, unassigned) [Example 134, 2-(2,2′-Bipyrimidin-5-yl)-1-ethyl-7-fluoro-6-methoxy-1,2,3,4-tetrahydroisoquinoline] — 19-fold lower, 54 nM
- CCC1c2cc(F)c(OC)cc2CN1c1ccnc(-c2ncccn2)n1 (single isomer, unassigned) [Example 65, 2-([2,2′-Bipyrimidin]-4-yl)-1-ethyl-6-fluoro-5-methoxyisoindoline] — 4.3-fold lower, 230 nM
- CCC1c2cc(OC)c(F)cc2CN1c1ccnc(-c2ncccn2)n1 (single isomer, unassigned) [Example 78, 2-([2,2′-Bipyrimidin]-4-yl)-1-ethyl-5-fluoro-6-methoxyisoindoline] — 10-fold lower, 98 nM
- CCC1c2cc(F)c(OC)cc2CCN1c1cnc(-c2ncccn2)nc1 (single isomer, unassigned) [Example 133, 2-(2,2′-Bipyrimidin-5-yl)-1-ethyl-7-fluoro-6-methoxy-1,2,3,4-tetrahydroisoquinoline] — 330-fold lower, 3 nM
